Measurements published in patent US12454541B2, “Reagent for measuring oxygen concentration in cell and tissue” (NATIONAL UNIVERSITY CORPORATION GUNMA UNIVERSITY, priority 2019, dated 2025).

Key:
HT-29 cells = test: Tracing of intracellular oxygen by phosphorescence lifetime of C6-BEDA in HT-29 cells using a plate reader; assay type: cell-based; details: for change of phosphorescence lifetime of C6-BEDA in cells after additive: C6-BEDA 500 nM, plate sealed with oil, excitation 480 nm, measurement 600 nm; for change of phosphorescence lifetime of C6-BEDA in cells after additive / change of intracellular oxygen partial pressure after additive: antimycin A 10 μM or FCCP 1 μM; for change of intracellular oxygen partial pressure after additive: converted from C6-BEDA phosphorescence lifetime with calibration curve
Description: (§1) Luminescence intensity, luminescence lifetime: microplate reader, Infinite 200 PRO; manufactured by TECAN.
Using a luminescence lifetime measurement mode of a commercially available plate reader, changes in the oxygen concentration in cells were traced. In a 96-well plate, HT-29 cells were plated at 50,000 cells/well, and cultured for 48 hours. Thereafter, C6-BEDA was added thereto to a final concentration of 500 nM, and culture was carried out for 2 hours. […] After sealing the plate with oil, the phosphorescence lifetime was measured using a plate reader (excitation wavelength, 480 nm; measurement wavelength, 600 nm; FIG. 6). The phosphorescence lifetime (τp/μs) was calculated using the following equation. τp=30/ln(W1/W2)
Here, W1 and W2 are the integrated values of the phosphorescence intensity obtained during the periods of 10 to 30 μs and 40 to 60 μs after the pulse excitation. In the cells to which no additive was added, the phosphorescence lifetime increased with time. […] This is due to the fact that intracellular oxygen consumption was stopped by the respiration inhibitory action of antimycin A, while intracellular oxygen consumption increased by the respiration-promoting action of FCCP. In order to convert the measured phosphorescence lifetime to the oxygen partial pressure, preparation of a calibration curve is necessary. Here, the calibration curve was prepared by measuring the phosphorescence lifetime at different oxygen partial pressures in the plate reader (pO2=1521.03225 exp(−τp/[…])) (FIG. 7).

[1] = Photophysical properties of iridium complexes in a solution (absorption, phosphorescence spectrum, quantum yield, lifetime); assay type: physicochemical; details: for maximum absorption wavelength λabs / maximum emission (phosphorescence) wavelength λphos / molecular extinction coefficient ε: in acetonitrile at room temperature; for molecular extinction coefficient ε: at λabs; for phosphorescence lifetime τp / phosphorescence quantum yield Φp: in acetonitrile, under deoxidized conditions
Source text: Photophysical properties of the phosphorescence of the compound represented by General Formula (I) or (II), such as the maximum absorption/phosphorescence wavelength, the phosphorescence quantum yield (Φp), and the phosphorescence lifetime (τp), can be measured by known measurement methods. For example, the maximum absorption/phosphorescence wavelength can be measured using a spectrophotometer or the like, and the phosphorescence quantum yield can be measured using a luminescence quantum yield measurement apparatus or the like, for a sample in which the compound represented by General Formula (I) or (II) is dissolved in a solvent or the like. Regarding the phosphorescence lifetime, the […] (τp) of the compound in each solvent can be measured using a phosphorescence lifetime measurement apparatus.
Absorption spectrum: ultraviolet and visible spectrophotometer, Ubest-550; manufactured by JASCO Corporation
Phosphorescence spectrum: multichannel spectroscope, PMA-12; manufactured by Hamamatsu Photonics K. K.
Phosphorescence quantum yield: luminescence quantum yield measurement apparatus, C9920-01; manufactured by Hamamatsu Photonics K. K.
Phosphorescence lifetime: compact fluorescence lifetime measurement apparatus, Quantaurus-Tau; manufactured by Hamamatsu Photonics K.K.
The maximum absorption wavelength (λabs) was found at 473 to 499 nm, and the molecular extinction coefficient (ε/dm^3 mol^−1 cm^−1) was not less than 70,000 dm^3 mol^−1 cm^−1. The maximum emission wavelength (λphos) was found at 577 to 622 nm. […] Therefore, the observed luminescence can be identified as a phosphorescence. […] These are higher quantum yields compared to those of the iridium complexes that have been reported so far.

liver of a mouse = test: Phosphorescence lifetime imaging (PLIM) of liver of mouse after tail vein administration; assay type: in vivo; details: mouse under anesthesia, 250 nmol, excitation 488 nm
Description: Subsequently, the in vivo dynamics was evaluated. In the present experiment, a microscope capable of acquiring a phosphorescence lifetime image as well as a phosphorescence intensity image (PLIM: phosphorescence lifetime imaging microscope) was used. To the tail vein of a mouse under anesthesia, 250 μL of a solution of C6-MEDA or C6-BEDA (physiological saline:DMSO=9:1, v/v, 250 nmol) was administered to carry out a phosphorescence intensity imaging experiment and a phosphorescence lifetime imaging experiment (excitation wavelength, 488 nm; monitoring wavelength, 510 to 560 nm). […] The liver is composed of functional units called hepatic lobules. Arteries and portal veins are present in the periphery of hepatic lobules, and veins are present in the center. It has thus been pointed out that there is a gradient of the oxygen partial pressure from the periphery to the center. […] It can be seen that the area with a short lifetime (which is blue in the color image) corresponds to the periphery of hepatic lobules, and that the area with a long lifetime (which is orange in the color image) corresponds to the area near the central vein.

HeLa cells = test: Phosphorescence imaging and microplate-reader phosphorescence intensity of HeLa cells with added iridium complex; assay type: cell-based; details: for phosphorescence intensity in imaging under oxygen partial pressure of 2.5% (intracellular oxygen responsiveness): HeLa cells, 500 nM, 2 hours culture, 2.5% vs 21% oxygen; for phosphorescence intensity in HeLa cells (comparison between complexes): final concentration 500 nM, 2 hours of culture, imaging and microplate reader
Description: Luminescence micrograph: inverted research microscope, IX-71; manufactured by Olympus Corporation
as §1
Using the iridium complexes developed, imaging experiments for living cells were carried out. […] For quantitative evaluation, the phosphorescence intensity was measured using a microplate reader (FIG. 4).
For C6-BEDA and C545T-BEDA, intracellular oxygen responsiveness was evaluated. […] Further, as a result of measurement of the phosphorescence intensity using a microplate reader, it was shown that the phosphorescence intensity increases 3-fold or more under an oxygen partial pressure of 2.5% (FIG. 4).

kidney of a mouse = test: Phosphorescence intensity and lifetime imaging (PLIM) of kidney of mouse after tail vein administration; assay type: in vivo; details: mouse under anesthesia, 250 nmol, excitation 488 nm

Row | Compound | change of phosphorescence lifetime of C6-BEDA in cells after additive (HT-29 cells) | change of intracellular oxygen partial pressure after additive (HT-29 cells) | suitability as probe for intracellular oxygen concentration (HT-29 cells; 500 nM, plate reader) | maximum absorption wavelength λabs [1] | maximum emission (phosphorescence) wavelength λphos [1] | molecular extinction coefficient ε [1] | phosphorescence lifetime τp [1] | phosphorescence quantum yield Φp [1] | phosphorescence lifetime imaging of liver (liver of a mouse) | phosphorescence intensity in imaging under oxygen partial pressure of 2.5% (intracellular oxygen responsiveness) (HeLa cells) | phosphorescence intensity in HeLa cells (comparison between complexes) (HeLa cells) | imaging of kidney (kidney of a mouse)
1 | N#CC(C#N)=NNc1ccc(OC(F)(F)F)cc1 [FCCP] | remarkably increased | rapid decrease in the oxygen partial pressure | – | – | – | – | – | – | – | – | – | –
2 | Bis[3-(benzo[d]thiazol-2-yl)-7-(diethylamino)-2H-chromen-2-one-κN, κC^4]N^1,N^2-dibutylethane-1,2-diamine iridium(III) hexafluorophosphate [C6-BEDA] | – | – | capable of real-time tracing of changes in the intracellular oxygen concentration | 482 nm | 594 nm | 106,000 dm^3mol^−1cm^−1 | 34.8 μs | 0.65 | the presence of the gradient of the phosphorescence lifetime can be seen | remarkable increases in the phosphorescence intensity | exhibit higher phosphorescence intensities | –
3 | antimycin A | hardly changed | slight increase in the oxygen partial pressure | – | – | – | – | – | – | – | – | – | –
4 | Bis[3-(benzo[d]thiazol-2-yl)-7-(diethylamino)-2H-chromen-2-one-κN, κC^4]N^1,N^2-dimethylethane-1,2-diamine iridium(III) hexafluorophosphate [C6-MEDA] | – | – | – | 481 nm | 593 nm | 103,000 dm^3mol^−1cm^−1 | 38.7 μs | 0.75 | – | – | – | Renal tubular cells could be clearly imaged
5 | CC1(C)CCN2CCC(C)(C)c3c2c1cc1[c-]c(-c2nc4ccccc4s2)c(=O)oc31.CC1(C)CCN2CCC(C)(C)c3c2c1cc1[c-]c(-c2nc4ccccc4s2)c(=O)oc31.CNCCNC.F[P-](F)(F)(F)(F)F.[Ir+3] [C545T-MEDA, Bis[10-(benzo[d]thiazol-2-yl)-1,1,7,7-tetramethyl-2,3,6,7-tetrahydro-1H-pyrano [2,3-f]pyrido[3,2,1-ij]quinolin-11(5H)-one-κN, κC^4]N^1,N^2-dimethylethane-1,2-diamine iridium(III) hexafluorophosphate] | – | – | – | 496 nm | 621 nm | 77,000 dm^3mol^−1cm^−1 | 46.5 μs | 0.36 | – | – | – | –
6 | CC1(C)CCN2CCC(C)(C)c3c2c1cc1[c-]c(-c2nc4ccccc4s2)c(=O)oc31.CC1(C)CCN2CCC(C)(C)c3c2c1cc1[c-]c(-c2nc4ccccc4s2)c(=O)oc31.CCCCNCCNCCCC.F[P-](F)(F)(F)(F)F.[Ir+3] [C545T-BEDA, Bis[10-(benzo[d]thiazol-2-yl)-1,1,7,7-tetramethyl-2,3,6,7-tetrahydro-1H-pyrano [2,3-f]pyrido[3,2,1-ij]quinolin-11(5H)-one-κN, κC^4]N^1,N^2-dibutylethane-1,2-diamine iridium(III) hexafluorophosphate] | – | – | – | 499 nm | 622 nm | 90,600 dm^3mol^−1cm^−1 | 53.7 μs | 0.40 | – | remarkable increases in the phosphorescence intensity | exhibit higher phosphorescence intensities | –
7 | Bis[3-(benzo[d]thiazol-2-yl)-7-(diethylamino)-2H-chromen-2-one-κN, κC^4]ethane-1,2-diamine iridium(III) hexafluorophosphate [C6-EDA] | – | – | – | 473 nm | 577 nm | 91,700 dm^3mol^−1cm^−1 | 38.9 μs | 0.82 | – | – | – | –
